Paper PMC3113527 (Journal of agricultural and food chemistry, 2011)

Columns and labels:
[1] = biological target: T1, Lipase from porcine pancreas (PL) (Sus scrofa, UniProt P00591); assay: Pancreatic lipase inhibition assay in vitro; type: biochemical; settings: read-out: Inhibition of PL
T1 sequence (P00591 1-450): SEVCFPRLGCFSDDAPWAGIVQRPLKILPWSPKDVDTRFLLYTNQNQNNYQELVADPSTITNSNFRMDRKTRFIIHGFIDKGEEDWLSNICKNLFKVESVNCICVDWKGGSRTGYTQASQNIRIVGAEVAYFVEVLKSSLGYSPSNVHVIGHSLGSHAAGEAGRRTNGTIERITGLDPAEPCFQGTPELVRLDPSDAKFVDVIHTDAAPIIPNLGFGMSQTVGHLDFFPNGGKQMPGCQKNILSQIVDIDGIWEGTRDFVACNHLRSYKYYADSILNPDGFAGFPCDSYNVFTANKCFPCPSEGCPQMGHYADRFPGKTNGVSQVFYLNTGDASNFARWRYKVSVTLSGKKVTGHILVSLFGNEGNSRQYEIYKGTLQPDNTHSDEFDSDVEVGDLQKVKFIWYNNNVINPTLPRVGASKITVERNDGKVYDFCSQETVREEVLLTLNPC

[2] = test system: PLA2; settings: at 2 mM; cited from earlier work
[3] = biological target: secreted phospholipase A2 (PLA2) (Apis mellifera, UniProt P00630); assay: biochemical; settings: read-out: Inhibition of PLA2
secreted phospholipase A2 (PLA2), sequence (P00630 34-167 limits assumed): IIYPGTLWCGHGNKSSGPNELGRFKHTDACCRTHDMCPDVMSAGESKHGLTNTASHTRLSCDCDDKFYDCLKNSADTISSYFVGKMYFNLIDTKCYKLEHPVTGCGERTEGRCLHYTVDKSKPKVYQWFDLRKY

With CCCCCCCCCCC[C@@H](C[C@@H]1OC(=O)[C@H]1CCCCCC)OC(=O)[C@H](CC(C)C)NC=O [Orlistat] the inhibition at 10 µM [1] was 72%.

For O=C(O[C@@H]1Cc2c(O)cc(O)cc2O[C@@H]1c1cc(O)c(O)c(O)c1)c1cc(O)c(O)c(O)c1 [EGCG], the “Inhibition of PLA2 in vitro” value [2] is given as 64.9%.

In the case of Oc1cc(O)c2c(c1)O[C@H](c1ccc(O)c(O)c1)[C@H](O)C2 [EC, (−)-epicatechin], the inhibition at 20 µM [1] is reported as 15% and the inhibition at 100 µM [3] is reported as 4.5%.
